# Earlier results in patent US12201725B2, “Dry powder compositions of treprostinil prodrugs and methods of use thereof” (Insmed Incorporated, priority 2019, dated 2025).
# Read-outs that look alike come from different tables or passages of the source.
# How the values were obtained:
# [1] = guinea pigs, comparison, not tested in Example 6
# [2] = tested on: hypoxia-induced increase in right ventricular pulse pressure (RVPP); settings: inhaled, comparison, not tested in Example 5
structure (smiles),measurement,setting,value
CCCCC[C@H](O)CC[C@@H]1[C@H]2Cc3cccc(OCC(=O)O)c3C[C@H]2C[C@H]1O [treprostinil],Timing of cough,[1]; nebulized,≤ 10 min
same,Threshold dose of inhaled TRE that causes cough,[1],1.23 µg/kg
same,Duration of inhibition of the hypoxia-induced increase in RVPP,[2]; highest dose 215 μg/kg,2 h
same,Duration of inhibition of the hypoxia-induced increase in RVPP,"[2]; lower doses 15, 53, or 110 μg/kg",1 h
